Data on four compounds can be found in ChEMBL document CHEMBL1127810, “Synthesis of high specific activity [3H]-9-cis-retinoic acid and its application for identifying retinoids with unusual binding properties” (J Med Chem, 1994).

For assay [1], the target named is T1, Retinoic acid receptor RXR-gamma (Homo sapiens, UniProt P48443).
T1 sequence (P48443 whole entry): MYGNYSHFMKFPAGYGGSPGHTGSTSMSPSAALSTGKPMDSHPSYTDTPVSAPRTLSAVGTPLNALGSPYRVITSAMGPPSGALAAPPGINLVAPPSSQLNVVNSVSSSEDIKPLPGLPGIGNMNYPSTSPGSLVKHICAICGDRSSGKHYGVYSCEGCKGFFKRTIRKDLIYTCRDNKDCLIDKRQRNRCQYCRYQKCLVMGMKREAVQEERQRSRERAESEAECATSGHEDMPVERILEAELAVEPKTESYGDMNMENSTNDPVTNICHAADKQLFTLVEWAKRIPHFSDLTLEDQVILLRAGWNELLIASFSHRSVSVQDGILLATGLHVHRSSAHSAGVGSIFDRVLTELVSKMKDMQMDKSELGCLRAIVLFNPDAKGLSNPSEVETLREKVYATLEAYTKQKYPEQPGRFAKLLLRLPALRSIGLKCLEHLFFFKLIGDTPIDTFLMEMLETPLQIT
The assay is described as follows: Binding affinity against retinoic Acid X gamma receptor using [3H]- -9-cis-Retinoic Acid in competitive binding assay.

Assay [2] addresses T2, Retinoic acid receptor RXR-beta (Homo sapiens, UniProt P28702).
T2 sequence (P28702 whole entry): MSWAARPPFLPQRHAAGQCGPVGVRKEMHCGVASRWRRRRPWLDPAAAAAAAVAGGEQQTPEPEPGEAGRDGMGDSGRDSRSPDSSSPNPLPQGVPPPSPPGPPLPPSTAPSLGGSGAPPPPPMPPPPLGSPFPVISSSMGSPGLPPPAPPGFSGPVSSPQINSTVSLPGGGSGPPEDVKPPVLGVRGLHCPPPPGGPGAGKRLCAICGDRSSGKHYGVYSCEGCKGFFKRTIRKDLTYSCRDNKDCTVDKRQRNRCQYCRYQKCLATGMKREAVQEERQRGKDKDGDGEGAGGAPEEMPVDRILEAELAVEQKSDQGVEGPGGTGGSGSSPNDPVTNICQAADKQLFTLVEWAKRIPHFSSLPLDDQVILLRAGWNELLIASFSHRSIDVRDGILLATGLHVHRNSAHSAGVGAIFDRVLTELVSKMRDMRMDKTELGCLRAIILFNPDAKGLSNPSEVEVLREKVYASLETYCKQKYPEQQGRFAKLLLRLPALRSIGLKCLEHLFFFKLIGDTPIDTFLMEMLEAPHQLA
As to the kind of experiment: Binding affinity against retinoic Acid X beta receptors co-transfected into CV-1 cells. It counts as cell-based.

The target of assay [3] is T3, Retinoic acid receptor RXR-alpha (Homo sapiens, UniProt P19793).
T3 sequence (P19793 whole entry): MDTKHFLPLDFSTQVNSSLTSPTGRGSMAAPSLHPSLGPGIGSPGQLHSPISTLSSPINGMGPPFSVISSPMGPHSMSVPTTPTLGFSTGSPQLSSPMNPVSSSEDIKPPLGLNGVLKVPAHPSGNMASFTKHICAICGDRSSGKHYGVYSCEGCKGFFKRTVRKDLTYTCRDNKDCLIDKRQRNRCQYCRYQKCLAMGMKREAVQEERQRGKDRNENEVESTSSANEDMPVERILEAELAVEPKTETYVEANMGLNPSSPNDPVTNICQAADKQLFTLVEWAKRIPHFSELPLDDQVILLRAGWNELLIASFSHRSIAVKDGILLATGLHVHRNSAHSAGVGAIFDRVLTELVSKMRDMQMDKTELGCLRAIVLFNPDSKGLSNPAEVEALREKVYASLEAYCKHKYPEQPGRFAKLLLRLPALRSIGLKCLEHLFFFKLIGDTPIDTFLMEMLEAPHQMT
The assay is described as follows: Binding affinity against retinoic Acid X alpha receptor using [3H]- -9-cis-Retinoic Acid in competitive binding assay.

Assay [4] deals with T1, Retinoic acid receptor RXR-gamma. The assay is described as follows: Binding affinity against retinoic Acid X gamma receptors co-transfected into CV-1 cells. The class given is cell-based.
For assay [5], the target named is T2, Retinoic acid receptor RXR-beta. The assay is described as follows: Binding affinity against retinoic Acid X beta receptor using [3H]- -9-cis-Retinoic Acid in competitive binding assay.
The target in assay [6] is T3, Retinoic acid receptor RXR-alpha. As to the kind of experiment: Binding affinity against retinoic Acid X alpha receptors co-transfected into CV-1 cells. It counts as cell-based.
Assay [7] addresses T4, Retinoic acid receptor beta (Homo sapiens, UniProt P10826).
T4 sequence (P10826 whole entry): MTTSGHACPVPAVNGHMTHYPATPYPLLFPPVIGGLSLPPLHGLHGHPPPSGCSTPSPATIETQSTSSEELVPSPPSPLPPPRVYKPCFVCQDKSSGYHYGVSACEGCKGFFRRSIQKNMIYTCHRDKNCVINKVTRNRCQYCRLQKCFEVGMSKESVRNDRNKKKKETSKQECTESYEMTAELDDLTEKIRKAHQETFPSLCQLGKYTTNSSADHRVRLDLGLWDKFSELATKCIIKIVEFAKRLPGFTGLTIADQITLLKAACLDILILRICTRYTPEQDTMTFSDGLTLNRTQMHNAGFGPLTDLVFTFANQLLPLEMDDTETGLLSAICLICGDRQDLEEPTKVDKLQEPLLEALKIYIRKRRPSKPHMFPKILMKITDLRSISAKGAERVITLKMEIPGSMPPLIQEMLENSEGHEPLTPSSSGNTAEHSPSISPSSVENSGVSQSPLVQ
The assay is described as follows: Binding affinity against retinoic Acid beta receptors co-transfected into CV-1 cells. The class given is cell-based.

Assay [8] has as its target T5, Retinoic acid receptor gamma (Homo sapiens, UniProt P13631).
T5 sequence (P13631 whole entry): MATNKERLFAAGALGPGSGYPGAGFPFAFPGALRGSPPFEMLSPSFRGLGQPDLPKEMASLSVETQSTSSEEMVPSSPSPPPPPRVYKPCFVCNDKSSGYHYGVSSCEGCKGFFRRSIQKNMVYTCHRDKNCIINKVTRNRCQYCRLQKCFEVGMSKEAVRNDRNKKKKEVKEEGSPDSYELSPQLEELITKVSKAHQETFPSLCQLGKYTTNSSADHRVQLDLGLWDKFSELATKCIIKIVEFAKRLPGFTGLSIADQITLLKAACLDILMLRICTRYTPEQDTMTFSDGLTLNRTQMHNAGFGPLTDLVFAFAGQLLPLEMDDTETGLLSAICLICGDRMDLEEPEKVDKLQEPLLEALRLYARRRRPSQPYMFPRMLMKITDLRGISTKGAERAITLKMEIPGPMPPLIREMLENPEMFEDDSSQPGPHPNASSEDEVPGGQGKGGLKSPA

Assay [9] addresses T5, Retinoic acid receptor gamma. This is another data set of the same source.
Description: Binding affinity against retinoic Acid gamma receptors co-transfected into CV-1 cells
In assay [10] the target is T4, Retinoic acid receptor beta. As to the kind of experiment: Binding affinity against retinoic Acid beta receptor using [3H]- -9-cis-Retinoic Acid in competitive binding assay.
Assay [11] concerns the target T6, Retinoic acid receptor alpha (Homo sapiens, UniProt P10276).
T6 sequence (P10276 whole entry): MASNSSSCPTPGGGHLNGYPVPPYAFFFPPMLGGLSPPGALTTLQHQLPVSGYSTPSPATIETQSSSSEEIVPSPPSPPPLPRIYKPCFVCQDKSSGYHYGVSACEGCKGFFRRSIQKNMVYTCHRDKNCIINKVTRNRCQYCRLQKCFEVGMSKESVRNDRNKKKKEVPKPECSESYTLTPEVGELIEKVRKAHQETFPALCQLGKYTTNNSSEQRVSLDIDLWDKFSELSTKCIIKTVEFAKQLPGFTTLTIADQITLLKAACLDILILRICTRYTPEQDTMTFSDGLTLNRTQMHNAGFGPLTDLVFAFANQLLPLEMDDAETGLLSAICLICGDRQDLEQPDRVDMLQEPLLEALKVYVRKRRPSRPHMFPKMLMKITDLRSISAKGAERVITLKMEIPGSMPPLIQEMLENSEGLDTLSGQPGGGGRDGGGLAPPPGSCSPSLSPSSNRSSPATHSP
The assay is described as follows: Binding affinity against retinoic Acid alpha receptor using [3H]- -9-cis-Retinoic Acid in competitive binding assay.

The target in assay [12] is T6, Retinoic acid receptor alpha. As to the kind of experiment: Binding affinity against retinoic Acid alpha receptors co-transfected into CV-1 cells. The class given is cell-based.

What is called IC50 is the concentration that gives 50% inhibition. The EC50 is the concentration needed to bring the measured effect to its halfway point. A low value points to greater potency. Turning to `C/C(=C\c1ccc(C(=O)O)cc1)c1ccc2c(c1)C(C)(C)CCC2(C)C`, the IC50 in assay [1], in assay [3] and in assay [5] was > 1000 nM each time. The EC50 in [2], in assay [4] and in [6] was > 10000 nM each time.

With `CCc1cc2c(cc1/C(C)=C/c1ccc(C(=O)O)cc1)C(C)(C)CCC2(C)C`, the IC50 in assay [1] was found to be 10 nM; in assay [8], 250 nM; in assay [3] it was 320 nM; in [10] it was 75 nM; in assay [5], 50 nM; in assay [11] it was 100 nM. Further, the EC50 turned out to be 310 nM in assay [7]; 2000 nM in assay [2]; 23 nM in assay [9]; 2600 nM in assay [4]; 1700 nM in assay [12]; 2900 nM in assay [6].

On to `C/C(=C\c1ccc(C(=O)O)cc1)c1cc2c(cc1C)C(C)(C)CCC2(C)C`, for which the IC50 in [1] was 100 nM; in assay [8] it was 645 nM; in [3], 32 nM; in assay [10] it was 1170 nM; in assay [5], > 1000 nM; in assay [11] it was 638 nM. The concentration for a half-maximal effect (EC50) in [7] turned out to be 230 nM; in assay [2] it was 1170 nM; in assay [9] it was 180 nM; in assay [4], 1500 nM; in assay [12] it was 340 nM; in assay [6] it was 1200 nM.

Consider `C/C(=C\c1ccc(C(=O)O)cc1)c1cc2c(cc1C(C)C)C(C)(C)CCC2(C)C`, for which the IC50 was 10 nM in assay [1]; > 1000 nM in assay [8]; 320 nM in [3]; 150 nM in assay [10]; 50 nM in [5]; > 1000 nM in assay [11]. Moreover, the EC50 in assay [7] is > 10000 nM; in [2], > 10000 nM; in assay [9] it was 270 nM; in assay [4], 2700 nM; in [12], > 10000 nM; in [6], 300 nM.
